Data on 59 molecules can be found in PubChem BioAssay AID1645868 (Buhrlage Lab, Dana-Farber Cancer Institute and Novartis …, 2021).

Calls of active or inactive are those of the source.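 The calls were made as follows: active = maximal percent inhibition of the deubiquitinase OTUD3 of at least 30% across the tested doses; inactive = the rest.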 Bounds are passed on as bounds.

One may read the IC50 as the midpoint of a concentration-inhibition curve.

This assay addresses OTU domain-containing protein 3 (Homo sapiens) (UniProt Q5T2D3). In words: Validation of screening hits, potency titration, in vitro enzymatic, OTU domain-containing protein 3 DUB inhibitors (AID 1645868). Conditions: purified OTUD3, ubiquitin-rhodamine cleavage fluorescence, 2 h.

Sequence of OTU domain-containing protein 3 (Homo sapiens) (Q5T2D3 whole entry, looked up, the tested form may be a part): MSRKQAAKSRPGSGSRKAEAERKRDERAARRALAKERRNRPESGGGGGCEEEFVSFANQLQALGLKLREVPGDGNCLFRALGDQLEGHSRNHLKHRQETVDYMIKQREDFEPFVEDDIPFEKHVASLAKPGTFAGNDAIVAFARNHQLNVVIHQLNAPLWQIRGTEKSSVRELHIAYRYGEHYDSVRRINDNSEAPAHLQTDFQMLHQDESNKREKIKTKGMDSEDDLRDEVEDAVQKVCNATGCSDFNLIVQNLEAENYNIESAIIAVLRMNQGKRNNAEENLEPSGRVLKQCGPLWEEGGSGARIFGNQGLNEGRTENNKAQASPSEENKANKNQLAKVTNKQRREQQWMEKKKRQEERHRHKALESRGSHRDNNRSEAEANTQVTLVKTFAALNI

With `O=[N+]([O-])c1ccccc1C(c1c[nH]c2ccccc12)c1c[nH]c2ccccc12`, the concentration for half-maximal inhibition (IC50) is 49.4 µM.

With `CN1CCN(c2ncnc3c2oc2ccc(Cl)cc23)CC1`, the IC50 was > 50 µM (inactive).

Consider `Cc1ccc(NC(=O)c2cnc3c(c2)c(=O)n(C)c(=O)n3C)cc1`, for which the IC50 is 20 µM.

`COc1ccc(CCNc2c(-c3ccccc3O)nc3cnccn23)cc1OC`: the IC50 is > 50 µM (inactive).

On to `Cc1cnc2nc3c(cc2c1)CN(S(=O)(=O)c1cc(F)ccc1C)CC3`, for which the IC50 is > 50 µM (inactive).

`Nc1ccccc1SC(CC(=O)c1ccc(Cl)cc1)c1ccsc1` (centres undefined): the IC50 is > 50 µM (inactive).

In the case of `Cn1cc(-c2noc(Cc3cccc(C(F)(F)F)c3)n2)ccc1=O`, the IC50 is > 50 µM (inactive).

Consider `COc1cc(C(=O)Nc2ccc(-c3csc(C)n3)cc2)cc(OC)c1OC`, for which the IC50 is > 50 µM (inactive).

Regarding `COc1ccc(-c2cc(C(C)=O)c(C)n2CCC(=O)Nc2ccc(OC)cc2OC)cc1`, the IC50 was > 50 µM (inactive).

For the molecule `COc1ccc(CNC(=O)c2[nH]nc3c2CCc2ccccc2-3)cc1`, the IC50 was > 50 µM (inactive).

Consider `COc1ccc2nc(NC(=O)C(CC(C)C)NS(=O)(=O)c3ccc4c(c3)CCN4C(C)=O)sc2c1` (centres undefined), for which the IC50 was 26.4 µM.

With `COc1ccc(-c2cc3nc([C@H](C)NC(=O)Cc4ccccc4C)nn3cn2)cc1`, the half-inhibitory concentration (IC50) was 6.66 µM.

As to `O=C(NCc1ccc(Cl)cc1)Nc1cccc2ccccc12`, the IC50 was > 50 µM (inactive).

For the molecule `CC(=O)NCc1nc(-c2ccc3c(c2)nc(C)c(=O)n3C2CCCC2)no1`, the IC50 was > 50 µM (inactive).

In the case of `Cc1c(CC(=O)Nc2nn[nH]n2)c(=O)oc2cc3c(cc12)CCC1(CCCCC1)O3`, the IC50 is > 50 µM (inactive).

Turning to `CC(=O)Nc1ccc(Cc2nc(-c3ccc4c(c3)nc(C)c(=O)n4C3CCCC3)no2)cc1`, the IC50 was > 50 µM (inactive).

`COc1ccc(CNC(=O)c2ccccc2N2C(=O)N3CCc4c([nH]c5ccccc45)[C@@]3(C)C2=O)cc1`: the 50% inhibitory concentration (IC50) was 42.1 µM.

For `COc1ccc(NC(=O)COc2ccc3ccc(=O)oc3c2)cc1`, the IC50 was > 50 µM (inactive).

Take `CN1C(=O)COc2ccc(NC(=O)c3cc(-c4ccccc4)on3)cc21`: the IC50 was > 50 µM (inactive).

`N#Cc1cccc(NC(=O)Cn2cccc(-c3nc(-c4ccccc4)no3)c2=O)c1`: the IC50 was > 50 µM (inactive).

As for `CCCC(=O)Nc1nc2ccc(CCC(=O)NCc3ccc(F)cc3)cc2s1`, the 50% inhibitory concentration (IC50) is 35.6 µM.

As for `CO[C@H]1/C=C/OC2(C)Oc3c(C)c(O)c4c(c3C2=O)C2(C=C(NC(=O)/C(C)=C\C=C\[C@H](C)[C@H](O)[C@@H](C)[C@@H](O)[C@@H](C)[C@H](OC(C)=O)C1C)C4=O)OCC(=O)O2` (some centres undefined), the IC50 was > 50 µM (inactive).

Turning to `Cc1cc(-c2nnc(SCC(=O)Nc3ccc(Br)c(C)c3)n2N)n[nH]1`, the half-inhibitory concentration (IC50) is 17.3 µM.

In the case of `CN1C(=O)COc2cc(-c3noc(C(=O)NC4CCCCCC4)n3)ccc21`, the IC50 was > 50 µM (inactive).

Take `O=C(Nc1ccc2c(c1)OCCO2)Nc1nnc(CC(=O)N2CCCCC2)s1`: the IC50 is > 50 µM (inactive).

As to `COc1ccc(CNC(=O)CCc2nc3sc4c(c3c(=O)[nH]2)CCCCC4)cc1`, the IC50 was > 50 µM (inactive).

For `CS(=O)(=O)N1CCCN(c2nc3cc(Cl)ccc3n3cccc23)CC1`, the IC50 is > 50 µM (inactive).

For `O=C(CSc1ccc2nnc(-c3ccccc3)n2n1)N1CCCc2ccccc21`, the IC50 is 15 µM.

`Cc1cccc(C(=O)N2CCc3cc(-c4nc(NC(=O)CNc5ccccc5)sc4C)ccc32)c1`: the IC50 is > 50 µM (inactive).

Take `O=C(CCSc1ccc(Cl)cc1)c1cccs1`: the IC50 was 21.5 µM.

With `CC1=C(c2ccc(Cl)cc2)S(=O)(=O)NC1=NCC(=O)Nc1ccc(F)cc1`, the IC50 was > 50 µM (inactive).

With `CC[C@H](C)C[C@H]1CC[C@](O)([C@](C)(O)C(=O)N[C@@H]2C(=O)N3NCCC[C@@H]3C(=O)N(O)[C@@H](C)C(=O)NCC(=O)N3NCCC[C@H]3C(=O)N(O)[C@H](C)C(=O)O[C@H]2C(C)C)O[C@@H]1C`, the 50% inhibitory concentration (IC50) is 2.18 µM.

With `CSc1nc2ncn(CC(=O)Nc3cccc(Cl)c3)c(=O)c2s1`, the IC50 was > 50 µM (inactive).

As for `CCCOc1ccc(C(=O)Nc2ccc(S(=O)(=O)Nc3cc(C)nc(C)n3)cc2)cc1`, the IC50 is > 50 µM (inactive).

As for `Cc1nn(C)c2c1[C@@H](c1ccc(F)c(Br)c1)[C@H](NC(=O)c1ccccc1)C(=O)N2`, the IC50 is > 50 µM (inactive).

Turning to `Cc1cc(C(=O)COC(=O)c2ccc[nH]c2=O)c(C)n1-c1ccc2c(c1)OCO2`, the IC50 is > 50 µM (inactive).

For the molecule `COc1ccccc1NS(=O)(=O)c1ccc2oc(SCC(=O)c3ccccc3)nc2c1`, the IC50 was > 50 µM (inactive).

In the case of `COc1ccc(CNC(=O)CN2C(=O)C(C)=C(c3ccc(C)cc3)S2(=O)=O)cc1`, the IC50 was > 50 µM (inactive).

On to `O=C(c1ccc(COc2cccc3ccccc23)o1)N1CCC(Cc2ccccc2)CC1`, for which the IC50 was > 50 µM (inactive).

As to `CC(OC(=O)c1cn(-c2ccccc2)nc1-c1cccnc1)C(=O)Nc1cccc(S(=O)(=O)N(C)C)c1` (centres undefined), the IC50 is > 50 µM (inactive).

Take `COc1ccccc1CNC(=O)Nc1cccc2ccccc12`: the IC50 was 44.7 µM.

In the case of `CCc1ccc(C2c3c(oc4ccccc4c3=O)C(=O)N2c2nncs2)cc1` (centres undefined), the IC50 was > 50 µM (inactive).

Regarding `CC1CCc2c(sc3ncnc(NC4CCN(CC(N)=O)CC4)c23)C1` (centres undefined), the IC50 was > 50 µM (inactive).

For the molecule `COc1ccc(OC)c(-c2cc(C(=O)Nc3c(C)nn(Cc4ccccc4)c3C)no2)c1`, the IC50 was > 50 µM (inactive).

Consider `CC1=C(C(=O)Nc2ccccc2C)C(c2ccc(OCc3ccccc3F)cc2)n2ncnc2N1` (centres undefined), for which the 50% inhibitory concentration (IC50) was 24 µM.

Regarding `O=C(/C=C/c1c(F)cccc1Cl)N1CCc2ccccc2C1`, the IC50 was > 50 µM (inactive).

With `Cc1cc(C(F)(F)F)n2nc(C3CCN(C(=O)c4cnn(C)c4C)C3)cc2n1` (centres undefined), the IC50 is > 50 µM (inactive).

For `COc1ccc(-c2nc(SCC(=O)Nc3ccc(Cl)cc3F)n[nH]2)cc1`, the IC50 is > 50 µM (inactive).

`Cc1ccc(Nc2nc(O)c(CC(=O)Nc3ccccc3C)s2)cc1C`: the IC50 is 20 µM.

Take `COc1cc(C(=O)NC(Cc2ccccc2)c2nc3ccccc3[nH]2)cc(OC)c1OC` (centres undefined): the concentration for half-maximal inhibition (IC50) is 2.99 µM.

As to `Nc1ccc(NC(=O)c2cc3c(s2)CCC3)cc1[N+](=O)[O-]`, the IC50 was 23.5 µM.

For the molecule `Cc1nnc(-c2nnc(NCc3ccc(Cl)cc3)c3ccccc23)o1`, the IC50 is > 50 µM (inactive).

`Cc1ccc(CNC(=O)CCCn2c(=O)c3sccc3n(CC(=O)OCc3ccccc3)c2=O)cc1`: the IC50 is 3.54 µM.

With `Cc1ccc(C(=O)c2cn(CC(=O)Nc3ccccc3)c3ccc(C)cc3c2=O)cc1`, the half-inhibitory concentration (IC50) was 21.1 µM.

For `COc1cc(C)c(NC(=O)c2cc(-c3ccccc3)c(N3CCOCC3)s2)cc1OC`, the IC50 was > 50 µM (inactive).

Take `O=C(CN(Cc1ccc(Cl)cc1)S(=O)(=O)c1ccc(Cl)cc1)N1CCOCC1`: the IC50 is > 50 µM (inactive).

Turning to `O=C(c1ccc2occc2c1)N1CCC(S(=O)(=O)c2ccc(-c3ccco3)cc2)CC1`, the IC50 is > 50 µM (inactive).

`Cc1nc2ccccc2nc1SCC(=O)Nc1ccc2c(c1)OCO2`: the IC50 was > 50 µM (inactive).

For `CCOc1ccc(NC(=O)Cn2c(=O)n(CCC(=O)NCc3ccco3)c(=O)c3ccccc32)cc1`, the IC50 was 11.6 µM.
